The values that follow come from PubChem BioAssay AID328 (DTP/NCI, 2004).

Structures are written as SMILES. Several values for one entry are separate records, joined by “and”; a condition that tells them apart may be missing. Equal entries are not always repeated. Toxic doses and inconclusive results are not listed.

This test relates to BDF1 mice, P388 leukemia ip, median survival T/C. The test is described as follows: NCI In Vivo Anticancer Drug Screen. Data for tumor model P388 Leukemia (intraperitoneal) in B6D2F1 (BDF1) mice. As to conditions: endpoint: median survival time, higher = longer survival. The gist of the method:
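Steps: implant the tumour, treat one group with compound and another with vehicle, record survival, then divide treated by control.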

[1] abbreviates: dose: 50.0 mg/kg/injection, schedule: Q01DX009 (ip), vehicle: saline with Tween-80.
The mark [2] stands for this setting: dose: 100.0 mg/kg/injection, schedule: Q01DX009 (ip), vehicle: saline with Tween-80.
The mark [3] stands for this setting: dose: 200.0 mg/kg/injection, schedule: Q01DX009 (ip), vehicle: saline with Tween-80.
Where [4] appears, read: dose: 100.0 mg/kg/injection, schedule: Q04DX003 (ip), vehicle: Klucel (hydroxypropylcellulose) (HPC).
Where [5] appears, read: dose: 200.0 mg/kg/injection, schedule: Q04DX003 (ip), vehicle: Klucel (hydroxypropylcellulose) (HPC).
The mark [6] stands for this setting: dose: 400.0 mg/kg/injection, schedule: Q04DX003 (ip), vehicle: Klucel (hydroxypropylcellulose) (HPC).
Setting [7] is: dose: 25.0 mg/kg/injection, schedule: Q04DX003 (ip), vehicle: Klucel (hydroxypropylcellulose) (HPC).
Where [8] appears, read: dose: 50.0 mg/kg/injection, schedule: Q04DX003 (ip), vehicle: Klucel (hydroxypropylcellulose) (HPC).
Setting [9] is: dose: 100.0 mg/kg/injection, schedule: Q01DX009 (ip), vehicle: Klucel (hydroxypropylcellulose) (HPC).
The mark [10] stands for this setting: dose: 25.0 mg/kg/injection, schedule: Q01DX009 (ip), vehicle: saline.
Setting [11] is: dose: 25.0 mg/kg/injection, schedule: Q04DX003 (ip), vehicle: saline.
The mark [12] stands for this setting: dose: 50.0 mg/kg/injection, schedule: Q04DX003 (ip), vehicle: saline.
The mark [13] stands for this setting: dose: 100.0 mg/kg/injection, schedule: Q04DX003 (ip), vehicle: saline.

Turning to `Cc1ccc(S(=O)(=O)NC(=O)Oc2nc3cc(Cl)ccc3o2)cc1`, the T/C by setting is: under setting [1], 99 % of control; under setting [2], 114 % of control; under setting [3], 96 % of control.

As for `NOCc1cc2c(cc1Cl)OCO2`, the T/C is 95 % of control under setting [4], 100 % of control under setting [5] and 113 % of control under setting [6].

For the compound `CCCCCCOP(=O)(CCCCCC)OCCCCCC`, the T/C is, setting by setting: (dose: 25.0 mg/kg/injection, schedule: Q01DX009 (ip), vehicle: Klucel (hydroxypropylcellulose) (HPC)) 108 % of control; under setting [7], 100 % of control; (dose: 50.0 mg/kg/injection, schedule: Q01DX009 (ip), vehicle: Klucel (hydroxypropylcellulose) (HPC)) 104 % of control; under setting [8], 95 % of control; under setting [9], 113 % of control; under setting [4], 100 % of control.

In the case of `CCN(CC)Cc1cc(Nc2c3ccc([N+](=O)[O-])cc3nc3ccc(OC)cc23)ccc1O`, the T/C reads like this: (dose: 12.5 mg/kg/injection, schedule: Q04DX003 (ip), vehicle: saline) 111 % of control; under setting [10], 97 % of control; under setting [11], 111 % of control; (dose: 50.0 mg/kg/injection, schedule: Q01DX009 (ip), vehicle: saline) 104 % of control; under setting [12], 113 % of control; (dose: 100.0 mg/kg/injection, schedule: Q01DX009 (ip), vehicle: saline) 100 % of control. Besides, the T/C under setting [13] was 113 % of control; the T/C (dose: 200.0 mg/kg/injection, schedule: Q01DX009 (ip), vehicle: saline) was 121 % of control; the T/C (dose: 200.0 mg/kg/injection, schedule: Q04DX003 (ip), vehicle: saline) is 89 % of control; the T/C (dose: 400.0 mg/kg/injection, schedule: Q04DX003 (ip), vehicle: saline) is 104 % of control.

In the case of `CCOc1cc(-c2nccc3cc(OC)c(OC)cc23)cc(OCC)c1OCC`, the T/C reads like this: under setting [9], 110 % of control; under setting [4], 100 % of control; (dose: 200.0 mg/kg/injection, schedule: Q01DX009 (ip), vehicle: Klucel (hydroxypropylcellulose) (HPC)) 110 % of control; under setting [5], 100 % of control; (dose: 400.0 mg/kg/injection, schedule: Q01DX009 (ip), vehicle: Klucel (hydroxypropylcellulose) (HPC)) 110 % of control; under setting [6], 100 % of control.

In the case of `N#CN=CN1CCC(O)(c2ccccc2)CC1`, the T/C was 88 % of control under setting [1], 88 % of control under setting [2] and 94 % of control under setting [3].

On to `O=C(Cn1ccc(=O)[nH]c1=O)c1ccc(Cl)s1`, for which the T/C was 101 % of control and 112 % of control under setting [2]; 102 % of control and 105 % of control under setting [3]; 101 % of control and 115 % of control (dose: 400.0 mg/kg/injection, schedule: Q01DX009 (ip), vehicle: saline with Tween-80).

Consider `CC1CN(c2ccc([N+](=O)[O-])cc2)C(C)CN1` (stereo not given), for which the T/C reads like this: under setting [11], 100 % of control; under setting [12], 110 % of control; under setting [13], 90 % of control.

`CCCCCCCCCCCC[n+]1ccc(C)cc1C`: the T/C reads like this: (dose: 62.0 micrograms/kg/injection, schedule: Q01DX009 (ip), vehicle: saline) 107 % of control; (dose: 125.0 micrograms/kg/injection, schedule: Q01DX009 (ip), vehicle: saline) 102 % of control; (dose: 250.0 micrograms/kg/injection, schedule: Q01DX009 (ip), vehicle: saline) 113 % of control; (dose: 500.0 micrograms/kg/injection, schedule: Q01DX009 (ip), vehicle: saline) 116 % of control.

Take `Clc1c(CI)ccc(CI)c1Cl`: the T/C runs as follows: (dose: 11.0 mg/kg/injection, schedule: Q04DX003 (ip), vehicle: Klucel (hydroxypropylcellulose) (HPC)) 100 % of control; (dose: 12.5 mg/kg/injection, schedule: Q01DX009 (ip), vehicle: saline sonified) 113 % of control; (dose: 16.5 mg/kg/injection, schedule: Q01DX009 (ip), vehicle: saline with Tween-80) 90 % of control; (dose: 16.5 mg/kg/injection, schedule: Q04DX003 (ip), vehicle: Klucel (hydroxypropylcellulose) (HPC)) 100 % of control; (dose: 16.5 mg/kg/injection, schedule: Q04DX003 (ip), vehicle: saline sonified) 122 % of control; (dose: 25.0 mg/kg/injection, schedule: Q01DX009 (ip), vehicle: saline with Tween-80) 90 % of control. The T/C is, setting by setting: under setting [7], 109 % of control; (dose: 37.5 mg/kg/injection, schedule: Q04DX003 (ip), vehicle: Klucel (hydroxypropylcellulose) (HPC)) 109 % of control; (dose: 50.0 mg/kg/injection, schedule: Q01DX009 (ip), vehicle: saline sonified) 118 % of control; under setting [8], 110 % of control; under setting [4], 120 % of control.

Turning to `O=C1OC(=O)C2C3C=CC(O3)C12` (stereo not given), the T/C by setting is: (dose: 3.28 mg/kg/injection, schedule: Q04DX003 (ip), vehicle: saline) 100 % of control; (dose: 6.25 mg/kg/injection, schedule: Q01DX009 (ip), vehicle: saline) 110 % of control; (dose: 6.56 mg/kg/injection, schedule: Q04DX003 (ip), vehicle: saline) 100 % of control; (dose: 12.5 mg/kg/injection, schedule: Q01DX009 (ip), vehicle: saline) 104 % of control and 105 % of control; (dose: 13.12 mg/kg/injection, schedule: Q04DX003 (ip), vehicle: saline) 100 % of control; under setting [10], 90 % of control and 104 % of control. Moreover, for the setting “dose: 35.0 mg/kg/injection, schedule: Q01DX009 (ip), vehicle: saline”, the T/C was 104 % of control.

As for `c1ccc(-c2cc3c(N4CCOCC4)nnc(N4CCOCC4)c3cn2)cc1`, the T/C is 89 % of control under setting [1] and 86 % of control under setting [2].

As to `O/N=c1/ccn(O)c2ccccc12`, the T/C is 168 % of control (dose: 0.14 mg/kg/injection, schedule: Q01DX009 (ip), vehicle: saline); 116 % of control (dose: 0.19 mg/kg/injection, schedule: Q04DX003 (ip), vehicle: saline); 120 % of control (dose: 0.29 mg/kg/injection, schedule: Q04DX003 (ip), vehicle: saline); 155 % of control and 183 % of control and 190 % of control (dose: 0.34 mg/kg/injection, schedule: Q01DX009 (ip), vehicle: saline); 180 % of control (dose: 0.44 mg/kg/injection, schedule: Q04DX003 (ip), vehicle: saline); 162 % of control and 170 % of control and 195 % of control (dose: 0.51 mg/kg/injection, schedule: Q01DX009 (ip), vehicle: saline). Also, the T/C (dose: 0.66 mg/kg/injection, schedule: Q04DX003 (ip), vehicle: saline) is 210 % of control; the T/C (dose: 1.0 mg/kg/injection, schedule: Q04DX003 (ip), vehicle: saline) was 172 % of control; the T/C (dose: 1.5 mg/kg/injection, schedule: Q04DX003 (ip), vehicle: saline) was 181 % of control; the T/C (dose: 4.65 mg/kg/injection, schedule: Q04DX003 (ip), vehicle: saline) is 173 % of control; the T/C (dose: 11.0 micrograms/kg/injection, schedule: Q01DX009 (ip), vehicle: saline) is 104 % of control; the T/C (dose: 22.0 micrograms/kg/injection, schedule: Q01DX009 (ip), vehicle: saline) was 108 % of control. For the same compound, the T/C (dose: 45.0 micrograms/kg/injection, schedule: Q01DX009 (ip), vehicle: saline) was 104 % of control.

On to `O=c1[nH]c(=O)n(O)c2nc[nH]c12`, for which the T/C runs as follows: under setting [11], 100 % of control; (dose: 37.5 mg/kg/injection, schedule: Q01DX001 (ip), vehicle: saline) 100 % of control; under setting [12], 100 % of control; (dose: 75.0 mg/kg/injection, schedule: Q01DX001 (ip), vehicle: saline) 109 % of control; (dose: 75.0 mg/kg/injection, schedule: Q01DX009 (ip), vehicle: saline) 90 % of control; under setting [13], 118 % of control.
